Test results from ChEMBL document CHEMBL1201862, “PubChem BioAssay data set” (2004).
Values joined by “and” are separate entries in the source; they are usually repeats but may differ in a detail not shown here. Identical values can stand only once.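 Protocol summary: plate cells (96-well), add compound at 5 concentrations, incubate 48 h, interpolate endpoints linearly. Here, GI50 denotes the concentration required for 50% inhibition of growth.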 Active and inactive are the calls of the source. No stated cut-off is given here; in the data, active = GI50 up to about 1.1 µM and inactive = higher.

How the values were obtained:
Assay in all cases: inhibition of tumour cell growth, NCI panel, 48 h
OVCAR-4 = system: OVCAR-4
NCI-H522 = system: NCI-H522
HOP-62 = system: HOP-62
SNB-75 = system: SNB-75
A498 = system: A498
SK-MEL-28 = system: SK-MEL-28
Hs-578T = system: Hs-578T
MDA-MB-231 = system: MDA-MB-231
ACHN = system: ACHN
T47D = system: T47D
KM12 = system: KM12
K562 = system: K562
UO-31 = system: UO-31
CAKI-1 = system: CAKI-1
IGROV-1 = system: IGROV-1
OVCAR-8 = system: OVCAR-8
SF-295 = system: SF-295
Malme-3M = system: Malme-3M
SK-MEL-5 = system: SK-MEL-5
RXF 393 = system: RXF 393

Measured: GI50

c1ccc2c(Nc3ncco3)cccc2c1
inactive: OVCAR-4 > 10 µM | NCI-H522 > 10 µM | HOP-62 > 10 µM | SNB-75 > 10 µM | A498 > 10 µM | SK-MEL-28 > 10 µM | Hs-578T > 10 µM | MDA-MB-231 > 10 µM | ACHN > 10 µM | T47D > 10 µM | KM12 > 10 µM | K562 > 10 µM | UO-31 > 10 µM | CAKI-1 > 10 µM | IGROV-1 > 10 µM | OVCAR-8 > 10 µM | SF-295 > 10 µM | Malme-3M > 10 µM | SK-MEL-5 > 10 µM

CC(C)CC1c2[nH]c3ccccc3c2C[C@H]2C(=O)NC(Cc3c[nH]c4ccccc34)C(=O)N12 (stereo partly drawn)
inactive: OVCAR-4 15.8 µM | NCI-H522 11.5 µM | HOP-62 20.6 µM | A498 16.8 µM | SK-MEL-28 17.3 µM | Hs-578T 7.11 µM | MDA-MB-231 20.3 µM | ACHN 17.8 µM | T47D 6.61 µM | KM12 13.4 µM | K562 11.5 µM | UO-31 14.3 µM | CAKI-1 23.7 µM | IGROV-1 15.5 µM | RXF 393 7.87 µM | OVCAR-8 15.9 µM | SF-295 20.4 µM | Malme-3M 14.6 µM | SK-MEL-5 12.7 µM

O=c1n(Cc2ccccc2)c(=O)n2c(=O)n(Cc3ccccc3)c(=O)n12
inactive: OVCAR-4 > 100 µM | NCI-H522 > 100 µM | SNB-75 > 100 µM | A498 > 100 µM | SK-MEL-28 > 100 µM | Hs-578T > 100 µM | MDA-MB-231 > 100 µM | ACHN > 100 µM | T47D > 100 µM | KM12 > 100 µM | K562 > 100 µM | UO-31 > 100 µM | CAKI-1 > 100 µM | OVCAR-8 > 100 µM | SF-295 > 100 µM | Malme-3M > 100 µM | SK-MEL-5 > 100 µM

O=C1c2ccccc2C(=O)N1n1c(Cc2ccccc2)n[nH]c1=O
inactive: OVCAR-4 > 100 µM | HOP-62 > 100 µM | SNB-75 > 100 µM | A498 > 100 µM | SK-MEL-28 > 100 µM | Hs-578T > 100 µM | MDA-MB-231 > 100 µM | ACHN > 100 µM | T47D > 100 µM | KM12 > 100 µM | K562 > 100 µM | UO-31 > 100 µM | CAKI-1 > 100 µM | IGROV-1 > 100 µM | OVCAR-8 > 100 µM | SF-295 > 100 µM | Malme-3M > 100 µM | SK-MEL-5 > 100 µM

NC(=O)C(=CNC(=S)Nc1ccc(S(=O)(=O)Nc2ccccn2)cc1)C(N)=O
inactive: OVCAR-4 > 100 µM | NCI-H522 50.5 µM | HOP-62 > 100 µM | SNB-75 > 100 µM | A498 > 100 µM | SK-MEL-28 > 100 µM | Hs-578T > 100 µM | MDA-MB-231 > 100 µM | ACHN > 100 µM | T47D > 100 µM | KM12 > 100 µM | K562 40.6 µM | UO-31 > 100 µM | CAKI-1 > 100 µM | IGROV-1 > 100 µM | RXF 393 > 100 µM | OVCAR-8 > 100 µM | SF-295 > 100 µM | SK-MEL-5 > 100 µM

O=C1CC(C(OCc2ccccc2)C(OCc2ccccc2)C(COCc2ccccc2)OCc2ccccc2)CC(=O)N1 (stereo not drawn)
inactive: OVCAR-4 > 75 µM | A498 > 100 µM | SK-MEL-28 > 75 µM | Hs-578T > 75 µM and 88.7 µM | MDA-MB-231 71.4 µM | ACHN > 75 µM | T47D 26.1 µM | IGROV-1 > 100 µM | RXF 393 42.9 µM and 29.6 µM | OVCAR-8 > 75 µM | SF-295 > 75 µM | Malme-3M > 100 µM | SK-MEL-5 > 75 µM

Cn1cc(S(=O)(=O)NC(=O)Nc2ccc(Cl)cc2)c(=O)c2ccc(Cl)cc21
inactive: OVCAR-4 > 100 µM | NCI-H522 20.9 µM | HOP-62 > 100 µM | SNB-75 > 100 µM | SK-MEL-28 > 100 µM | Hs-578T 72.1 µM | MDA-MB-231 > 100 µM | ACHN 34.2 µM | T47D > 100 µM | KM12 69.7 µM | K562 47.1 µM | UO-31 > 100 µM | CAKI-1 > 100 µM | IGROV-1 > 100 µM | RXF 393 > 100 µM | OVCAR-8 > 100 µM | SF-295 > 100 µM | Malme-3M > 100 µM | SK-MEL-5 > 100 µM

CSc1ncc2c(n1)-c1ccccc1OC2N1CCOCC1 (stereo not drawn)
inactive: OVCAR-4 21.7 µM | NCI-H522 34.4 µM | SNB-75 44.5 µM | A498 21.3 µM | Hs-578T 61.2 µM | MDA-MB-231 83.9 µM | ACHN 80.9 µM | T47D 24.1 µM | KM12 53.3 µM | K562 56.1 µM | UO-31 42.4 µM | CAKI-1 50.8 µM | IGROV-1 39.4 µM | RXF 393 53.8 µM | OVCAR-8 > 100 µM | SF-295 49.7 µM | SK-MEL-5 40.4 µM

CNC(C#N)c1ccc(OC)cc1 (stereo not drawn)
inactive: OVCAR-4 > 100 µM | NCI-H522 75.5 µM | A498 > 100 µM | SK-MEL-28 > 100 µM | Hs-578T > 100 µM | MDA-MB-231 > 100 µM | ACHN > 100 µM | T47D 61.5 µM | KM12 78.9 µM | K562 34.1 µM | UO-31 > 100 µM | CAKI-1 > 100 µM | IGROV-1 > 100 µM | RXF 393 > 100 µM | OVCAR-8 > 100 µM | SF-295 > 100 µM | Malme-3M > 100 µM | SK-MEL-5 25.8 µM

CC(=O)OCC(OC(C)=O)C(OC(C)=O)C(OC(C)=O)C(C=NN(C(C)=O)S(=O)(=O)c1ccc(/C=C2\NC(=O)N(C)C2=O)cc1)OC(C)=O (stereo not drawn)
inactive: OVCAR-4 27 µM | HOP-62 26.3 µM | SNB-75 33.7 µM | A498 38 µM | Hs-578T 25.3 µM | MDA-MB-231 33.5 µM | ACHN 37.4 µM | T47D 15.9 µM | KM12 > 100 µM | K562 36.3 µM | UO-31 35.9 µM | CAKI-1 45.4 µM | IGROV-1 18.8 µM | RXF 393 13.4 µM | OVCAR-8 27.2 µM | SF-295 42.8 µM | Malme-3M 17.5 µM | SK-MEL-5 29.6 µM

N=c1oc2ccc(Cl)cc2cc1C(N)=O
inactive: OVCAR-4 37.1 µM | SNB-75 26.1 µM | A498 32.7 µM | SK-MEL-28 29 µM | Hs-578T 18.5 µM | MDA-MB-231 24.4 µM | ACHN 24.4 µM | T47D 24.8 µM | KM12 24.2 µM | K562 > 100 µM | CAKI-1 34.1 µM | IGROV-1 21.4 µM | RXF 393 29.6 µM | OVCAR-8 33.2 µM | Malme-3M 17.6 µM | SK-MEL-5 20.5 µM
